Test results from patent US10300143B2, “Compositions for treating cancer and methods for making the same” (THE BRIGHAM AND WOMEN'S HOSPITAL, INC., priority 2012, dated 2019).
“Also recorded” adds a separate entry of the source.

Assays:
[1] = system: MDA-MB-468 human breast cancer cell line; assay: Cell viability (MTS) assay; assay type: cell-based
Protocol: (§1) 4T1 and MDA MB 468 breast cancer cells were cultured in RPMI, 4306 ovarian cancer cells were cultured in DMEM, supplemented with 10% FBS and 1% of Antibiotic-Antimycotic 100× solution. 4×10^3 Cells were seeded into 96-well flat-bottomed plates. Free drug or drug loaded nanoparticles (normalized to equivalent amounts of free drug) were added in triplicate in each 96-well plate and then plates were incubated in 5% CO^2 atmosphere at 37° C. After desired time period of incubation, cells were washed and incubated with 100 μL phenol-red free medium (without FBS) containing 20 μl of the CellTiter 96 Aqueous One Solution reagents (PROMEGA, WI). After 2 hours incubation, the absorbance in each well was recorded.
(§2) 4T1 and MDA MB 468 breast cancer cells were cultured in RPMI, 4306 ovarian cancer cells were cultured in DMEM, supplemented with 10% FBS and 1% of Antibiotic-Antimycotic 100× solution (Invitrogen, 15240-062). 4×10^3 Cells were seeded into 96-well flat-bottomed plates. Free drug or drug loaded nanoparticles (normalized to equivalent amounts of free drug) was added in triplicate in each 96-well plate at appropriate concentrations (1, 10, 100 nM and 1, 10, and […]) and then plates were incubated in 5% CO2 atmosphere at 37° C. After desired time period of incubation, cells were washed and incubated with […] phenol-red free medium (without FBS) containing […] of the CellTiter 96 Aqueous One Solution reagents (Promega, WI). After 2 hours incubation in a 5% CO2 atmosphere at 37° C., the absorbance in each well was recorded at 490 nm using an Epoch plate reader (Biotek instruments, VT). The absorbance reflects the number of surviving cells. Blanks were subtracted from all data and results analyzed using GraphPad Prism™ software (GraphPad, San Diego, Calif.). Each experiment was independently repeated thrice and data shown is mean±SE of n=3.

[2] = system: 4T1 murine breast cancer cell line; assay: Cell viability (MTS) assay; assay type: cell-based; conditions: Mus musculus
Protocol: as §1, §2

[3] = system: PI3K-overexpressing 4306 ovarian cancer cell line; assay: Cell viability (MTS) assay; assay type: cell-based
Protocol: as §1, §2

[4] = system: phosphorylation of Akt in 4T1 cells; assay: Western blot assay of phospho AKT in cells; assay type: cell-based, murine
Protocol: The protein was collected and protein lysates were electrophoresed. Then membranes were incubated with Phospho AKT, total AKT and actin antibodies overnight at 4° C. After appropriate amount of washing with TBST, membranes were incubated with horseradish peroxidase-conjugated secondary antibody for 1 hour. Detection was done using G-box (Syngene) and densitometric quantification was done by image J software. […] When cells were 70% confluent, they were incubated in serum free media for 6 hours. Then, free drug or equivalent amount of drug loaded nanoparticles were added in appropriate concentration in serum deprived media (1% FBS). […] Amount of protein was measured by […] and equal amount of protein lysates were electrophoresed on a 4-20% polyacrylamide gel, transferred to polyvinylidene difluoride membrane, and blocked in TBST-T with 5% dry milk. Then membranes were incubated in TBST with Phospho AKT (S473) (1:500 dilution), total AKT (1:1000 dilution), and actin (1:2000 dilution) antibodies (all antibodies from Cell Signalling Technology) overnight at 4° C. After appropriate amount of washing with TBST, membranes were incubated with horseradish peroxidase-conjugated secondary antibody for 1 hour. Detection was done using G-Box™ from Syngene and densitometric quantification was done by image J™ software.

PI3K = conditions: cited from earlier work
4T1 breast cancer tumors = assay: Efficacy study of SNPs in murine 4T1 breast cancer model; assay type: in vivo, BALB/c mice; conditions: 5 mg/kg PI103 equivalent, 3 injections every other day
Protocol: 4T1 breast cancer cells ([…]) were implanted subcutaneously in the flanks of 4-week-old BALB/c mice. The drug therapy was started on day 9. The drug therapy consisted of administration of PBS (for Control group), free drug (5 mg/kg) and SNPs (5 mg/kg). For PI103-SNPs, the drug therapy also consisted iRGD-PI103-SNPs group (5 mg/kg). The tumor volumes and body weights were monitored on every alternate day for 11 days.
The drug therapy was started on day 9. For PI828-SNPs, the drug therapy consisted of administration of PBS (for Control group), free PI-828 (5 mg/kg) and PI828-SNPs (5 mg/kg). For PI103-SNPs, the drug therapy consisted of administration of PBS (for control group), free PI-103 (5 mg/kg) and PI103-SNPs (5 mg/kg) and 1RGD-PI103-SNPs (5 mg/kg) (administered by tail-vain injection). The tumor volumes and body weights were monitored on every alternate day for 11 days. […] The animals were sacrificed when the average tumor volume of the control exceeded 2000 mm3 in the control group.

[5] = system: phospho AKT, phospho mTOR, phospho 4EBP in 4T1 tumors; assay: Western blot assay of in vivo 4T1 tumor samples; design: species or system BALB/c mice; conditions: single injection 5 mg/kg, 72 hours
Protocol: For animal tissue, tumor stored in −80° C. were pulverized in a mortar and pestle using liquid nitrogen, then treated with RIPA buffer to extract the protein. Amount of protein was measured by BCA assay and equal amount of protein lysates were electrophoresed on a polyacrylamide gel, then transferred to polyvinylidene difluoride membrane, (BIO-RAD) and blocked in with 5% milk solution. Then membranes were incubated with appropriate concentration of primary antibody overnight at 4° C., followed by horseradish peroxidase-conjugated secondary antibody for 1 hour. Detection was done using G-box from SYNGENE and densitometric quantification was done by IMAGE-J software.
For animal tissue, tumor stored in −80° C. were pulverized in a mortar and pestle using liquid nitrogen, then treated with RIPA buffer to extract the protein. Amount of protein was measured by BCA assay and equal amount of protein lysates were electrophoresed on a polyacrylamide gel, then transferred to polyvinylidene difluoride membrane, (Bic-Rad) and blocked in with 5% milk scullion. Then membranes were incubated with appropriate concentration of primary antibody (all antibodies from Cell Signalling Technology) overnight at 4° C., followed by horseradish peroxidase-conjugated secondary antibody for 1 hour. Detection was done using G-box from Syngene and densitometric quantification was done by image J™ software.

IC50 ([1]; 48 hours): 445 ± 67 nM
IC50 ([1]; 72 hours): 312 ± 49 nM
IC50 ([2]; 48 hours): 122 ± 3.15 nM
IC50 ([2]; 72 hours): 67.3 ± 3.4 nM
IC50 ([3]; 48 hours): 286 ± 45 nM
IC50 ([3]; 72 hours): 392 ± 49.3 nM
SMILES: Oc1cccc(-c2nc(N3CCOCC3)c3oc4ncccc4c3n2)c1 [PI103]
phosphorylation of AKT after transient exposure ([4]; 4 hours exposure, wash, followed to 48 hours): rebound increase in phosphorylation of AKT
basal phosphorylation of Akt ([4]; equimolar PI103 (5 pM), continuous incubation, 48 hours): inhibited basal phosphorylation of Akt even at 48 hours of continuous incubation
PI3K inhibitory potency (PI3K): excellent potency in the low nanomolar range; also recorded: more potent
tumor growth (4T1 breast cancer tumors): tumor growth inhibition relative to PBS-treated controls, but tumor rebound was observed after the treatment was stopped
intratumoral Akt phosphorylation [5]: intratumoral Akt phosphorylation was inhibited
